Tests used:
Conditions in all cases: Compound concentration 1000.0 nM
[1] = biological target: T1, Tyrosine-protein kinase ZAP-70 (Homo sapiens) (UniProt P43403)
T1 sequence (whole entry): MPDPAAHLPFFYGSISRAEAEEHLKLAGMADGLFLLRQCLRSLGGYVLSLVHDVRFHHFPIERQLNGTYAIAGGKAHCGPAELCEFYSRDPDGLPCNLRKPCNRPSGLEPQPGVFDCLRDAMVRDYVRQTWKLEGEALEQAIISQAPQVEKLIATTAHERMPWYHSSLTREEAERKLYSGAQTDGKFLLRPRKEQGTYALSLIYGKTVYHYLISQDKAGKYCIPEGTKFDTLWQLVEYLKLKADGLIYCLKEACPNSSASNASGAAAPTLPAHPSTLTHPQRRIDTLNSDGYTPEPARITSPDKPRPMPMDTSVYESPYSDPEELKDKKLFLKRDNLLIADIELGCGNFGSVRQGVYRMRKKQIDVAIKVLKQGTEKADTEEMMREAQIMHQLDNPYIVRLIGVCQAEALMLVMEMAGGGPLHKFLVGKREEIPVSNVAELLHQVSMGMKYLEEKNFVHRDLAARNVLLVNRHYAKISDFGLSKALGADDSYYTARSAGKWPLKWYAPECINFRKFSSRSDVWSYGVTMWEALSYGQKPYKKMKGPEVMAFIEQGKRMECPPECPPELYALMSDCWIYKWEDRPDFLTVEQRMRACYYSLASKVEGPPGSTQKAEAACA

[2] = biological target: T2, Ephrin type-B receptor 3 (Homo sapiens) (UniProt P54753)
T2 sequence (whole entry): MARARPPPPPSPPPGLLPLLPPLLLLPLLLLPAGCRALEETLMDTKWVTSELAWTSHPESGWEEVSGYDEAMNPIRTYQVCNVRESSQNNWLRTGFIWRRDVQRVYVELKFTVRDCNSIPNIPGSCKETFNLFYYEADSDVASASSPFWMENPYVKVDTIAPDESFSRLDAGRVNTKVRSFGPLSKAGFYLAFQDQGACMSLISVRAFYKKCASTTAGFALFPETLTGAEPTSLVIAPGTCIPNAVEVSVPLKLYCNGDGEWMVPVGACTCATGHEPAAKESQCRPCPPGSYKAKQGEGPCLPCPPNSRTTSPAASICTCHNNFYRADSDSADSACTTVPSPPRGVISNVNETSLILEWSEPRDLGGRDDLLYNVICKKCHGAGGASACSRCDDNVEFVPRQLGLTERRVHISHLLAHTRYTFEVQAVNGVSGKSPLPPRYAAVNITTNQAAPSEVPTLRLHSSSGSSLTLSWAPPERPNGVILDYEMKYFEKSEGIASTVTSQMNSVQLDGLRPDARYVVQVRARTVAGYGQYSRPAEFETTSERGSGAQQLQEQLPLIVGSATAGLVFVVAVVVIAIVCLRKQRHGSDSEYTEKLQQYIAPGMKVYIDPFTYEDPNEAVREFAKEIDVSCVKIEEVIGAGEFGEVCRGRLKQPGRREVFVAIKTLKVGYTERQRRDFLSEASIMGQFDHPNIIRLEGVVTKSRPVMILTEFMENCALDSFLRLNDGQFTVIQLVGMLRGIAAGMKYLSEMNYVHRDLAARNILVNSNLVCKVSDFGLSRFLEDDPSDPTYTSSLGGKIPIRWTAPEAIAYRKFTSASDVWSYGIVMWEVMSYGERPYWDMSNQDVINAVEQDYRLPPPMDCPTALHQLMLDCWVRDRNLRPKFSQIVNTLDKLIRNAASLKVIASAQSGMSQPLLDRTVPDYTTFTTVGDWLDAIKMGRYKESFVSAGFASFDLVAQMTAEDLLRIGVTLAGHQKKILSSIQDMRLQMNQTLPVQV

[3] = biological target: MAP/microtubule affinity-regulating kinase 3 (Homo sapiens) (UniProt P27448)
Chain of MAP/microtubule affinity-regulating kinase 3 (Homo sapiens) (P27448 whole entry, looked up): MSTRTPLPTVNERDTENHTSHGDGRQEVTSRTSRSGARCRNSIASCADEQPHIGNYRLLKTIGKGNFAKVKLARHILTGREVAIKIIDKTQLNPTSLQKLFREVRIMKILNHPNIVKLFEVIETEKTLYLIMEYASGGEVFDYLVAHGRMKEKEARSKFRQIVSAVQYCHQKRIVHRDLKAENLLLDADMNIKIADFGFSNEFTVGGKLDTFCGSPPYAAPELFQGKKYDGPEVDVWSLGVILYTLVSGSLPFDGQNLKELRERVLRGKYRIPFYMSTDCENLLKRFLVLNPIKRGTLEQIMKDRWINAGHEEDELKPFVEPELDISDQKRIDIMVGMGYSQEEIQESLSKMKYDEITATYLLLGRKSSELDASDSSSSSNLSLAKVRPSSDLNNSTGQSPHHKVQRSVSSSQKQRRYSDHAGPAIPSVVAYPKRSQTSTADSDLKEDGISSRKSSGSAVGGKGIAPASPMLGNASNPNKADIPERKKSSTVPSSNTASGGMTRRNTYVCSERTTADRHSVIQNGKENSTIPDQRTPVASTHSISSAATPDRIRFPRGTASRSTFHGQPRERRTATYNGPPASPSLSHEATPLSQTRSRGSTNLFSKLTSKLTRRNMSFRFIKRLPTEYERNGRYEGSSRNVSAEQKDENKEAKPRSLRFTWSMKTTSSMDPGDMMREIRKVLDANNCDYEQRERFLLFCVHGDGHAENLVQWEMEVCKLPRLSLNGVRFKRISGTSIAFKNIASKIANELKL

[4] = biological target: Tyrosine-protein kinase HCK (Homo sapiens) (UniProt P08631)
Chain of Tyrosine-protein kinase HCK (Homo sapiens) (P08631 2-526 limits assumed): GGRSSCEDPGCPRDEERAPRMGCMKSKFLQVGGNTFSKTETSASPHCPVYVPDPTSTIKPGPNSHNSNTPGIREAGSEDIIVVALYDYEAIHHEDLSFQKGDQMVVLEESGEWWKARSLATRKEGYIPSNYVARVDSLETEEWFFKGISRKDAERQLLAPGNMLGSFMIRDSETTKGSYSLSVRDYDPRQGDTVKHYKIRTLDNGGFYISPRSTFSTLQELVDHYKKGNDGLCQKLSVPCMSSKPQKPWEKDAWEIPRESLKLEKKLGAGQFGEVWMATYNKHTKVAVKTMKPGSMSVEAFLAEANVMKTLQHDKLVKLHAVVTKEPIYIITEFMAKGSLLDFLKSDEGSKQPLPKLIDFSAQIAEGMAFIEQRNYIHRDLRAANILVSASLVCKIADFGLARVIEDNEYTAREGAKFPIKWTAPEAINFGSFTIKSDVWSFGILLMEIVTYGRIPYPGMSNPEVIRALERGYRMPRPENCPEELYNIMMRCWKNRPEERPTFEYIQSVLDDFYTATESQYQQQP

[5] = biological target: T3, Mitogen-activated protein kinase kinase kinase 2 (Homo sapiens) (UniProt Q9Y2U5)
T3 sequence (whole entry): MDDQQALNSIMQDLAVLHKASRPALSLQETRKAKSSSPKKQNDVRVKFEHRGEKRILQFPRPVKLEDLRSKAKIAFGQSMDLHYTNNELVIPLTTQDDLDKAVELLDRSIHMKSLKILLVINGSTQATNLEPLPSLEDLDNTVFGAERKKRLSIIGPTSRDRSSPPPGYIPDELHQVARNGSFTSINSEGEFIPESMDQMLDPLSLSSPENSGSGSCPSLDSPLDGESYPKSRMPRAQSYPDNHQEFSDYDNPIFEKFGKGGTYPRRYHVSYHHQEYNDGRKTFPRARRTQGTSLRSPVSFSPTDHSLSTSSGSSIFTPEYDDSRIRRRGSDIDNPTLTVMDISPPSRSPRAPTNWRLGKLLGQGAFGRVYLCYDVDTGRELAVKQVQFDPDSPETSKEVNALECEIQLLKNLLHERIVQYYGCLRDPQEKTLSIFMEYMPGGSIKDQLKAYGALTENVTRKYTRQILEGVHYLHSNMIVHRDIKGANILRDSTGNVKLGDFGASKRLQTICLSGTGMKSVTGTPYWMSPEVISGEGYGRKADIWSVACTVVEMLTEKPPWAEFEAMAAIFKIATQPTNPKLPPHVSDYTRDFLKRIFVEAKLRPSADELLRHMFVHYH

[6] = biological target: Tyrosine-protein kinase CSK (Homo sapiens) (UniProt P41240)
Chain of Tyrosine-protein kinase CSK (Homo sapiens) (P41240 2-450 limits assumed): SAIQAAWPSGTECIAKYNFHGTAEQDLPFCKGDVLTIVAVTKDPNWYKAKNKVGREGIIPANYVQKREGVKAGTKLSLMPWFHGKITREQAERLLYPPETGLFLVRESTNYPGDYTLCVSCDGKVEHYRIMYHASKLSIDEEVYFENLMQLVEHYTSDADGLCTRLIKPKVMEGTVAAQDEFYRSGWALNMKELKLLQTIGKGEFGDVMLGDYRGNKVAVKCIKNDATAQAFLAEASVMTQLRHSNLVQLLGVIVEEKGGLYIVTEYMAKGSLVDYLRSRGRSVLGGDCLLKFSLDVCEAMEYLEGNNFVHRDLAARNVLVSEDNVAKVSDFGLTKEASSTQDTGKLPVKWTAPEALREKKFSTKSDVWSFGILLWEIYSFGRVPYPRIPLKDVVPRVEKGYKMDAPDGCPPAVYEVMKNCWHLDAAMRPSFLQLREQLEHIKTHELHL

[7] = biological target: Myosin light chain kinase family member 4 (Homo sapiens) (UniProt Q86YV6)
Chain of Myosin light chain kinase family member 4 (Homo sapiens) (Q86YV6 whole entry): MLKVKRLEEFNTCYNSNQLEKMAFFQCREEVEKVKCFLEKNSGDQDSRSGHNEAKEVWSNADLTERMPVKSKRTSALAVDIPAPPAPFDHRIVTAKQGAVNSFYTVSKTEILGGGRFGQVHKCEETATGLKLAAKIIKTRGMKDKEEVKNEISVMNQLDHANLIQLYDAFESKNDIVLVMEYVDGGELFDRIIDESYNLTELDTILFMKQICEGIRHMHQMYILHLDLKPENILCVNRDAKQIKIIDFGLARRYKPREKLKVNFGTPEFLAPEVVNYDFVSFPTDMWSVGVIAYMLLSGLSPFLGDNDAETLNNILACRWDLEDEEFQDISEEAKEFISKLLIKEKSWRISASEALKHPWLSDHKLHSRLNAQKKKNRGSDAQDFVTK

[8] = biological target: T4, Serine/threonine-protein kinase 4 (Homo sapiens) (UniProt Q13043)
T4 sequence (whole entry): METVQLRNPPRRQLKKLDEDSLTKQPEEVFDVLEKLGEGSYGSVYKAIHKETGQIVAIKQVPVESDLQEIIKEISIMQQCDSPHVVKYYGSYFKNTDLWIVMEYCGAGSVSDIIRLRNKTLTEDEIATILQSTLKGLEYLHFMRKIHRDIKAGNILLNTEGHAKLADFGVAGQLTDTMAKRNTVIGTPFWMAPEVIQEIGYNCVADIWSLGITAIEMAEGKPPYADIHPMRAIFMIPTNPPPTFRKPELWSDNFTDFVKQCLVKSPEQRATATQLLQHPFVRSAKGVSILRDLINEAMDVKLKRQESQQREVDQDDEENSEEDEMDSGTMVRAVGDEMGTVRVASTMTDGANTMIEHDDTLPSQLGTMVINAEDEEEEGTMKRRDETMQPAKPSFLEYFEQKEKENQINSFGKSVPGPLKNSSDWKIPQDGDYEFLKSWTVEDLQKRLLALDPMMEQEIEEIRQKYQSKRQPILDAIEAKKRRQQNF

Measured: residual activity

CN(C)C(=O)Cn1cc(-c2nc(C3(c4ccc(-c5cnc(N)nc5)cc4)CC3)no2)cn1 [BI 0153]
inactive: [1] 94% | [2] 95% | [3] 100% | [4] 100% | [5] 93% | [6] 100% | [7] 100% | [8] 90%

CN(C)C(=O)Cn1cc(-c2nc([C@@](C)(c3ccc(-c4cnc(N)nc4)cc3)C3CC3)no2)cn1 [BI 665915]
inactive: [1] 100% | [2] 100% | [3] 99% | [4] 79% | [5] 94% | [6] 100% | [7] 100% | [8] 90%
